The record followed here is ChEMBL document CHEMBL5126605, “Nucleic-Acid-Based Targeted Degradation in Drug Discovery” (J Med Chem, 2022).

A short description of test [1]: Binding affinity to Cy5-labeled SARS-CoV-2 Attenuator hairpin RNA incubated for 20 mins by microscale thermophoresis analysis. On the set-up: species or system Severe acute respiratory syndrome coronavirus 2. Background: Microscale thermophoresis detects binding through changes in fluorescence in a small temperature gradient.
Test [2] relates to MDA-MB-231. Kind of test: Potency index, ratio of RIBOTAC activity of test compound to RIBOTAC activity of Dovitinib at Pre-miR-21 RNA/RNase L in human MDA-MB-231 cells assessed as decrease in mature miR-21 levels by RT-qPCR analysis. Type of test: cell-based. In general terms: Real-time PCR tracks product formation cycle by cycle.
Test [3] has as its system MDA-MB-231. Kind of test: RIBOTAC activity at Pre-miR-21 RNA/RNase L in human MDA-MB-231 cells assessed as decrease in mature miR-21 levels at 0.2 uM by RT-qPCR analysis. Format: cell-based. On the set-up: scale not given: the % may be the effect or the level left.
The nature of test [4]: RIBOTAC activity at Pre-miR-21 RNA/RNase L in human MDA-MB-231 cells assessed as decrease in mature miR-21 levels by RT-qPCR analysis. Format: cell-based.
The test system of test [5] is MDA-MB-231. Kind of test: RIBOTAC activity at Pre-miR-21 RNA/RNase L in human MDA-MB-231 cells assessed as decrease in mature miR-21 levels at 5 uM by RT-qPCR analysis. Format: cell-based. Details: scale not given: the % may be the effect or the level left.
Test [6] addresses T1, Huntingtin (Homo sapiens, UniProt P42858). Kind of test: Inhibition of HTT (unknown origin).
Test [7] deals with T1, Huntingtin. Kind of test: Induction of human HTT degradation in human SH-SY5Y cells assessed as decrease in normal HTT protein levels at 125 nM by Western blot analysis. On the set-up: scale not given: the % may be the effect or the level left. Format: cell-based.
Test [8] concerns the target T1, Huntingtin. Kind of test: Induction of human HTT degradation in human SH-SY5Y cells assessed as decrease in HTT-transcript levels at 125 nM. Details: scale not given: the % may be the effect or the level left. Format: cell-based.
The nature of test [9]: Binding affinity to 5' Cy5-labeled Pre-miR-210 RNA (unknown origin) incubated for 30 mins in the presence of RNase L by microscale thermophoresis analysis.
Test [10] is described as follows: Binding affinity to 5' Cy5 end-labeled DNA hairpin (unknown origin) incubated for 30 mins in the presence of RNase L by microscale thermophoresis analysis.
Test [11] in a line: Selectivity index, ratio of Kd for binding affinity to 5' Cy5-labeled microRNA-210 hairpin precursor (unknown origin) to Kd for binding affinity to 5' Cy5 end-labeled DNA hairpin (unknown origin) incubated for 30 mins in the presence of RNase L by microscale thermophoresis analysis.
The target of test [12] is T2, von Hippel-Lindau disease tumor suppressor/Bromodomain-containing protein 4 (Homo sapiens, UniProt O60885+P40337). Kind of test: PROTAC activity at VHL/BRD4 in human MCF7 cells assessed as BRD4 degradation by measuring maximum efficacy at 50 nM measured after 24 hrs by Western blot analysis relative to control. Format: cell-based. On the technique in general: In western blotting, separated proteins are transferred to a membrane and probed.

The test system of test [13] is MCF7. Kind of test: Antitumor activity human MCF7 cells xenografted in nude mouse assessed as tumor growth inhibition at 10 mg/kg, iv administered every other day for 21 days. Type of test: functional. The note with it: MCF7, 504 h, time 21 day, read-out: TGI.
Test [14] has as its target T2, von Hippel-Lindau disease tumor suppressor/Bromodomain-containing protein 4. Kind of test: PROTAC activity at VHL/BRD4 in human MCF7 cells assessed as BRD4 degradation measured after 24 hrs by Western blot analysis. Format: cell-based.

By Kd is commonly meant the constant that tells how readily two partners part at equilibrium. By IC50 is commonly meant the concentration needed to halve the response being measured. One may read the Emax as the size of the effect at its maximum, as opposed to the concentration needed. By EC50 is commonly meant the concentration needed to bring the measured effect to its halfway point.

A value given as a limit tells only on which side of the number the result lay.

T1 sequence (P42858 whole entry): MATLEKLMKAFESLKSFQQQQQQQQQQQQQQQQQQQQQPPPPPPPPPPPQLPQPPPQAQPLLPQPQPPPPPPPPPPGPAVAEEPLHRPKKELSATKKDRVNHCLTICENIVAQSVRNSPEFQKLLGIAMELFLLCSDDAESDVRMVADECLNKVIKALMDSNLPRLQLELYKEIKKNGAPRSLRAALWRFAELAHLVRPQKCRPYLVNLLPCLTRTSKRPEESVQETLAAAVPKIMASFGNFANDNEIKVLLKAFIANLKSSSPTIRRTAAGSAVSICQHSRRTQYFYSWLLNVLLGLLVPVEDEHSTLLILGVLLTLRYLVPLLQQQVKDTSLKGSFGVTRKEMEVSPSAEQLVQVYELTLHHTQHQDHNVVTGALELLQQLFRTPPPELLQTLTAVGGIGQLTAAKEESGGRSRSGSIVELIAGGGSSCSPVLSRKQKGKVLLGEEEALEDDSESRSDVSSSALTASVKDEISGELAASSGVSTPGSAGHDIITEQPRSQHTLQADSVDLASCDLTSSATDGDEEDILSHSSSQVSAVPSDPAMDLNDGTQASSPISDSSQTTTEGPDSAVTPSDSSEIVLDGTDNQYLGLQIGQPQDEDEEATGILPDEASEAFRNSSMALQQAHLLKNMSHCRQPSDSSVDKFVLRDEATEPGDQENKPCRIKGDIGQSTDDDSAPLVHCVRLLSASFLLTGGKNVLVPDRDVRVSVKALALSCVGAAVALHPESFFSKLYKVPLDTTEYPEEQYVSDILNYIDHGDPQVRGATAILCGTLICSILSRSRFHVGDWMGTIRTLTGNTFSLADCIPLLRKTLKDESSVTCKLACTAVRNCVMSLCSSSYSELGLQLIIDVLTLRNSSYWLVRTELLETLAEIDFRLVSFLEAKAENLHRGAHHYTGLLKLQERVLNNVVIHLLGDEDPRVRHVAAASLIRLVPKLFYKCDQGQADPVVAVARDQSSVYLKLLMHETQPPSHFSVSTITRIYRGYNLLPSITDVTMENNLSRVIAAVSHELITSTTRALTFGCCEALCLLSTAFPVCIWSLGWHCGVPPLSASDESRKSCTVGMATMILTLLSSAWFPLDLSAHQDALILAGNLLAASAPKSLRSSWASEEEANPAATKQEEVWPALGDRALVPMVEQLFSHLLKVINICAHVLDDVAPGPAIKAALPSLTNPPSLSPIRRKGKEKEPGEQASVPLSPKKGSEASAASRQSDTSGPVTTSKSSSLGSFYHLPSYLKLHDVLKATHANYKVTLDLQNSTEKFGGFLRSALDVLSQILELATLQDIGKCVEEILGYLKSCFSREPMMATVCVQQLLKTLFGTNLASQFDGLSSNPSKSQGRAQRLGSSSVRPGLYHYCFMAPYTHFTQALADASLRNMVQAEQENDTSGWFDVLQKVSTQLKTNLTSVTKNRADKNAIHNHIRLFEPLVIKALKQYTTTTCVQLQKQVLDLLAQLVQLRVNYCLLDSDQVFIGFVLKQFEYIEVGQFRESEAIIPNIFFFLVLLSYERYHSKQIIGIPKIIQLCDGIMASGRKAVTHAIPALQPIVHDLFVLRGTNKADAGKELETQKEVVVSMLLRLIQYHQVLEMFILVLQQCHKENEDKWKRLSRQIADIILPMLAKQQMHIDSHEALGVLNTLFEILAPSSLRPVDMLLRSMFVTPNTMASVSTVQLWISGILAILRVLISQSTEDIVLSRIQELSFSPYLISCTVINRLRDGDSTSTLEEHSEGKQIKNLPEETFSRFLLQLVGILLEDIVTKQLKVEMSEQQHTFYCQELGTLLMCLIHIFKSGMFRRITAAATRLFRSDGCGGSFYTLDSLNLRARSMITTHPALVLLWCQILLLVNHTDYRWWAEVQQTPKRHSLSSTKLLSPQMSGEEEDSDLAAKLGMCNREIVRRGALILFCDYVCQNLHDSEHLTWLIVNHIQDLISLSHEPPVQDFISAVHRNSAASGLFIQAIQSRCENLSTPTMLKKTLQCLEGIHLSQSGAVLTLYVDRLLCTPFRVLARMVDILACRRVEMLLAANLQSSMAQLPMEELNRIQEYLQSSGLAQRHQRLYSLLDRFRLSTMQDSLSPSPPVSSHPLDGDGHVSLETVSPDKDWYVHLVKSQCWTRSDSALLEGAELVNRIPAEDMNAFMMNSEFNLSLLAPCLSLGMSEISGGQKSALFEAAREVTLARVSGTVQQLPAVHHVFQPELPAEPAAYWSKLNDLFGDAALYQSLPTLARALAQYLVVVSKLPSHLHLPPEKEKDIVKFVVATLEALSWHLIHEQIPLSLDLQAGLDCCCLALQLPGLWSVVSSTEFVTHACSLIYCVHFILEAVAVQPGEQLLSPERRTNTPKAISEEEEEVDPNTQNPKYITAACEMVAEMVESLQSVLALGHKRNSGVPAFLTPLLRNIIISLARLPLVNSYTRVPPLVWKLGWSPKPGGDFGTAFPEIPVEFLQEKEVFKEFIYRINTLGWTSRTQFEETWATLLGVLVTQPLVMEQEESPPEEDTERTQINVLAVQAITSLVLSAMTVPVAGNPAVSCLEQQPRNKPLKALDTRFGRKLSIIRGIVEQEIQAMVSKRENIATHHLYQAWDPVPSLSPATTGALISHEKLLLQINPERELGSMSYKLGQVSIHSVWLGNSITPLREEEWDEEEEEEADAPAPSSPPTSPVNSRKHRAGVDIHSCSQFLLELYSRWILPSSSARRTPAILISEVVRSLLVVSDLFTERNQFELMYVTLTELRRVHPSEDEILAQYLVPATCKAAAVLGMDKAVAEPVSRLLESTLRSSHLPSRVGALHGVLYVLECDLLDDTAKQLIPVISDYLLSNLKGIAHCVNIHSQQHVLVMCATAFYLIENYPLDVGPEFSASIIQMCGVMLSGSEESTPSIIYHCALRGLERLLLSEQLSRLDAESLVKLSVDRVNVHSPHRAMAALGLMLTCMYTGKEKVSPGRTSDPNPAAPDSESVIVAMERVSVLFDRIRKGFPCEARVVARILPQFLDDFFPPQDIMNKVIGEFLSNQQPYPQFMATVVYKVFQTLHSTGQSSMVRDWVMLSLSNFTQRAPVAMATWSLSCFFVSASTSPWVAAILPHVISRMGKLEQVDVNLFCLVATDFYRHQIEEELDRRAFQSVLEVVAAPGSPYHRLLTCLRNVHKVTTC
T2 sequence (P40337 whole entry, looked up, other chains not shown): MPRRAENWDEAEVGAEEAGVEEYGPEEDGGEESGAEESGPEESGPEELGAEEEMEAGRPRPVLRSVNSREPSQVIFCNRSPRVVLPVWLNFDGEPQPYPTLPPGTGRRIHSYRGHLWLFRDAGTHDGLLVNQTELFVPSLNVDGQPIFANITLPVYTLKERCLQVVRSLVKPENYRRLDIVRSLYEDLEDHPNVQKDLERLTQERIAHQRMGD

`CNc1nc(Nc2cccc(C(=O)O)c2)nc2ccccc12` had a dissociation constant Kd in test [1] of 11 nM.
`CCOC(=O)C1=C(Nc2ccccc2)S/C(=C\c2ccc(OCCOCCOCCOCCNC(=O)NCCN3CCN(c4ccc5nc(-c6c(N)c7c(F)cccc7[nH]c6=O)[nH]c5c4)CC3)c(O)c2)C1=O`: in test [2], the Ratio was found to be 5. Also, the Activity in [3] was found to be 30%.
As to `CCCN(CC(=O)N(CCC)CC(=O)N(CCC)CC(=O)N(CC(=O)NCCOCCOCCOCCOc1ccc(/C=C2\SC(Nc3ccccc3)=C(C(=O)OCC)C2=O)cc1O)Cc1cn(CCCNC(=O)CCCOc2ccc(-c3nc4ccc(-c5ccc(N6CCN(C)CC6)cc5)cc4[nH]3)cc2)nn1)C(=O)CN(Cc1cn(CCCNC(=O)CCCOc2ccc(-c3nc4cc(-c5ccc(N6CCN(C)CC6)cc5)ccc4[nH]3)cc2)nn1)C(C)=O`, the IC50 in test [4] is 50 nM.
On to `CN1CCN(c2ccc3nc(-c4c(N)c5c(F)cccc5[nH]c4=O)[nH]c3c2)CC1`, for which the Activity in test [5] amounted to 30%.
In the case of `CCN1CCC(c2cc3c(F)cc(-c4cc(C)c5nc(C)cn5n4)cc3nn2)CC1`, in [6], the IC50 was found to be 8 nM.
For `CC1(C)CC(Oc2ccc(-c3ccc(-c4cn[nH]c4)cc3O)nn2)CC(C)(C)N1`, the figures for the Activity in [7] and in test [8] were 53% and 95%, respectively.
For the compound `CN1CCN(c2ccc3nc(-c4ccc5[nH]c(-c6cccc(OCCCC(=O)NCCCN=[N+]=[N-])c6)nc5c4)[nH]c3c2)CC1`, the figures for the Kd in test [9] and in test [10] were 160 nM and 620 nM, respectively. In [11], the Ratio stood at 5.
Take `CN1CCN(c2ccc3nc(-c4ccc5[nH]c(-c6cccc(OCCCC(=O)NCCCOCC(O)COP(=O)(O)O[C@@H]7[C@H](O)[C@@H](COP(=O)(O)O[C@@H]8[C@H](O)[C@@H](COP(=O)(O)O[C@@H]9[C@H](O)[C@@H](COP(=O)(O)O[C@@H]%10[C@H](O)[C@@H](COP(=O)(O)O)O[C@H]%10n%10cnc%11c(N)ncnc%11%10)O[C@H]9n9cnc%10c(N)ncnc%109)O[C@H]8n8cnc9c(N)ncnc98)O[C@H]7n7cnc8c(N)ncnc87)c6)nc5c4)[nH]c3c2)CC1` (some centres not stated): the Kd in [9] worked out at 340 nM.
With `CCN1CCC(c2cc(C)c3nc(-c4ccc5nn(C)cc5c4)cc(=O)n3c2)CC1`, in test [6], the IC50 is 80 nM.
On the same count and under the same terms, under `CC1(C)CC(Oc2ccc(-c3ccc(-c4ccnc(O)c4)cc3O)nn2)CC(C)(C)N1` stands 40 nM.
`Cc1ncsc1-c1ccc([C@H](C)NC(=O)[C@@H]2C[C@@H](O)CN2C(=O)[C@H](NC(=O)COCCOCCOCCNC(=O)C[C@@H]2N=C(c3ccc(Cl)cc3)c3c(sc(C)c3C)-n3c(C)nnc32)C(C)(C)C)cc1`: the Emax in test [12] is greater than 90%. The inhibition in vivo at 10 mg/kg in test [13] turned out to be 59.8%. Also, the EC50 in test [14] was 13 nM.
